In PubChem BioAssay (NCI) one finds TGI data, which are given here for 10 compounds.

What all share (assay): inhibition of tumour cell growth, NCI panel, 48 h
Assay [1] concerns COLO 205 colon.
For assay [2], the system named is EKVX NSCLC.
In assay [3] the test system is HCC-2998 colon.
Assay [4] concerns IGROV1 ovarian.
Assay [5] concerns K-562 leukemia.
In assay [6] the test system is NCI-H226 lung.
Assay [7] deals with NCI-H23 lung.
Assay [8] deals with NCI-H460 lung.
Assay [9] has as its system RPMI-8226 leukemia.
For assay [10], the system named is SNB-75 CNS.
Assay [11] has as its system TK-10 renal.
In assay [12] the test system is UACC-257 melanoma.
Assay [13] has as its system UACC-62 melanoma.
In assay [14] the test system is UO-31 renal.
In assay [15] the test system is SF-539 CNS.
Assay [16] deals with DU-145 prostate.

SMILES strings stand for the structures.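 In this assay, cells in 96-well plates receive the compound at five concentrations for 48 hours. Endpoints are linearly interpolated between the surrounding concentrations. TGI marks complete inhibition of growth.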

Consider `COC(=O)c1onc(-c2c(OC)cc(OC)cc2OC)c1C(=O)OC`, for which the TGI in assay [1], in [2], in [3], in assay [4], in assay [5] and in [6] was more than 100 µM throughout. Moreover, the TGI in assay [7], in [8], in [9], in assay [10], in assay [11] and in [12] was more than 100 µM in each case. For the same compound, the TGI in assay [13] and in [14] was more than 100 µM in each case.

On to `c1ccc2c(c1)C1CCCCCC21N1CCOCC1` (stereo unspecified), for which the TGI in assay [1], in assay [3], in [4], in assay [5], in assay [6] and in assay [7] was more than 100 µM each time. In addition, the TGI in assay [8], in assay [15], in assay [10], in [11], in assay [12] and in assay [13] was more than 100 µM each time. This compound came in with a TGI in [14] of more than 100 µM.

Turning to `CCCP1(=O)C=C(C)C(=C(Cl)Cl)C(C)=C1` (stereo unspecified), the TGI in [1] is more than 100 µM; in [2], more than 100 µM; in assay [3] it was 92.4 µM; in [4], more than 100 µM; in assay [5], more than 100 µM; in [7], 85.5 µM. Further, the TGI in assay [8], in [15], in assay [11], in assay [12], in assay [13] and in assay [14] was more than 100 µM in each case.

On to `O=c1[nH]cc(COCCCO)c(=O)[nH]1`, for which the TGI in [1], in assay [2], in assay [4], in assay [5], in [6] and in assay [7] was more than 100 µM throughout. Besides, the TGI in assay [8], in assay [9], in assay [15], in assay [10], in assay [11] and in assay [12] was more than 100 µM throughout. The TGI in assay [13] and in assay [14] was more than 100 µM throughout.

In the case of `CC1(C)OC(=O)C(C#N)=C1/C=C/c1coc2ccc(Cl)cc2c1=O`, the TGI in assay [1] was more than 100 µM; in assay [2] it was more than 100 µM; in [3], more than 100 µM; in [4], more than 100 µM; in assay [5], more than 100 µM; in [6] it was 92.6 µM. Moreover, the TGI in assay [7] is 52 µM; in assay [8], 43.8 µM; in [9], more than 100 µM; in [10], 53.5 µM; in assay [12], more than 100 µM; in assay [13], 89.8 µM. Moreover, the TGI in [14] is 83.6 µM.

Regarding `CC(=O)C(CN(CC(C)C)CC(C)C)C(c1ccccc1)c1c(O)c2ccccc2oc1=O` (stereo unspecified), the TGI in assay [1], in assay [2], in assay [3], in [4], in assay [6] and in assay [7] was more than 100 µM throughout. For the same compound, the TGI in assay [9], in assay [15], in [10], in assay [11], in [12] and in assay [13] was more than 100 µM throughout.

`CN(N=O)C(=O)ON1C(=O)CCC1=O`: the TGI in [2], in assay [3], in [4], in assay [5], in [6] and in [7] was more than 100 µM in each case. In addition, the TGI in assay [8], in assay [9], in assay [15], in assay [10], in [11] and in assay [12] was more than 100 µM throughout. Besides, the TGI in assay [13] and in assay [14] was more than 100 µM each time.

For `COc1cccc(OC)c1C(=O)OCc1ccccc1`, the TGI in assay [1], in assay [2], in assay [4], in [5], in [6] and in assay [7] was more than 100 µM in each case. Further, the TGI in assay [8], in assay [9], in [15], in [10], in assay [11] and in assay [12] was more than 100 µM each time. The compound further came in with a TGI in assay [13] of more than 100 µM.

Turning to `Cc1ccc(/C=C/C(=O)C(C)(C)CN2CCCCC2)cc1`, the TGI in assay [1] turned out to be 17.2 µM; in assay [2] it was 14.3 µM; in assay [3], 28.8 µM; in assay [4], 35.6 µM; in assay [5], 12 µM; in assay [6], 27.6 µM. Further, the TGI in assay [7] worked out at 30.5 µM; in assay [8] it was 23.5 µM; in [9], 14.7 µM; in [15], 16.8 µM; in assay [10], 19.5 µM; in assay [11], 24.1 µM. Also, the TGI in assay [12] turned out to be 23.2 µM; in assay [13], 30.3 µM; in [14], 22 µM.

As to `CC1=NC(=Cc2cccc(Cl)c2)C(=O)N1n1c(-c2ccccc2)nc2ccccc2c1=O`, the TGI in [1] is more than 100 µM; in assay [16] it was more than 100 µM; in assay [2] it was more than 100 µM; in assay [3], 54.5 µM; in [4] it was more than 100 µM; in [5], more than 100 µM. Moreover, the TGI was more than 100 µM in assay [6]; more than 100 µM in assay [7]; 46.5 µM in assay [8]; more than 100 µM in [9]; more than 100 µM in assay [15]; more than 100 µM in assay [10]. In addition, the TGI was more than 100 µM in assay [11], 70.3 µM in assay [12], more than 100 µM in [13] and more than 100 µM in [14].
